Reference: patent publication US20230391845A1, “GLP-1, GIP AND GLUCAGON RECEPTOR TRIPLE AGONISTS” (priority 2020, published 2023)
*1 amine or outer side, *2 acyl side, *3 side chain or, on linkers, in order; H or OH if unused. Where a SMILES comes first, the peptide text is derived from it. Side-chain parts run from the residue outwards. [ ]: non-standard residue; d: D form. The star is where a group is joined. X1 = O=C(O)CCCCCCCCCCCCCCCCCCC(=O)NCC1CCC(C(=O)*)CC1; C20 diacid = O=C(O)CCCCCCCCCCCCCCCCCCC(=O)*; C18 diacid = O=C(O)CCCCCCCCCCCCCCCCC(=O)*; γGlu = O=C(O)[C@H](CCC(=O)[*:2])N[*:1]; εLys = N[C@@H](CCCCN[*:1])C(=O)[*:2]; AEEA = NCCOCCOCC(=O)O; Aib = CC(C)(N)C(=O)O

Assay: Pharmacokinetic study in minipigs, i.v. administration
Design: species or system Göttingen minipigs
Conditions: minipig, in vivo, iv
Description: The purpose of this example is to determine the half-life in vivo of the triple agonists as described herein after i.v. administration to minipigs, i.e. the prolongation of their time in the body and thereby their time of action. This is done in a pharmacokinetic (PK) study, where the terminal half-life of the triple agonist in question is determined. By terminal half-life is generally meant the period of time it takes to halve a certain plasma concentration, measured after the initial distribution phase.
Female Göttingen minipigs were obtained from Ellegaard Göttingen Minipigs (Dalmose, Denmark) approximately 7-14 months of age and weighing from approximately 16-35 kg were used in the studies. The minipigs were housed individually and fed restrictedly once daily with SDS minipig diet (Special Diets Services, Essex, UK).
After at 3 weeks of acclimatisation two permanent central venous catheters were implanted in vena cava caudalis in each animal. The animals were allowed 1 week recovery after the surgery, and were then used for repeated pharmacokinetic studies with a suitable wash-out period between successive dosings.
The animals were fasted for approximately 18 hours before dosing and from 0 to 4 hours after dosing, but had adlibitum access to water during the whole period.
Intravenous injections (the volume corresponding to usually 1.5-2 nmol/kg, for example 0.1 mL/kg) of the triple agonists were given through one catheter, and blood was sampled at predefined time points for up to 14 days post dosing (preferably through the other catheter). Blood samples (for example 0.8 mL) were collected in 8 mM EDTA buffer and then centrifuged at 4° C. and 1942 g for 10 minutes.
Plasma was pipetted into Micronic tubes on dry ice and kept at −20° C. until analysed for plasma concentration of the triple agonists using ELISA, or a similar antibody-based assay, or LCMS. Individual plasma concentration-time profiles were analysed by a non-compartmental model in Phoenix WinNonLin ver. 6.4. (Pharsight Inc., Mountain View, CA, USA), and the resulting terminal half-lives (harmonic mean) determined.

| Compound | half-life (female, Göttingen) | half-life |
| --- | --- | --- |
| CC[C@H](C)[C@H](NC(=O)[C@H](CO)NC(=O)[C@H](Cc1ccc(O)cc1)NC(=O)[C@H](CC(=O)O)NC(=O)[C@H](CO)NC(=O)[C@@H](NC(=O)[C@H](Cc1ccccc1)NC(=O)[C@@H](NC(=O)CNC(=O)[C@H](CCC(N)=O)NC(=O)C(C)(C)NC(=O)[C@@H](N)Cc1ccc(O)cc1)[C@@H](C)O)[C@@H](C)O)C(=O)N[C@@H](Cc1ccc(O)cc1)C(=O)N[C@@H](CC(C)C)C(=O)N[C@@H](CC(=O)O)C(=O)N[C@@H](CCCCNC(=O)COCCOCCNC(=O)COCCOCCNC(=O)CC[C@H](NC(=O)CCCCCCCCCCCCCCCCCCC(=O)O)C(=O)O)C(=O)N[C@@H](CCC(N)=O)C(=O)N[C@@H](C)C(=O)N[C@@H](C)C(=O)NC(C)(C)C(=O)N[C@@H](CCC(=O)O)C(=O)N[C@@H](Cc1ccccc1)C(=O)N[C@H](C(=O)N[C@@H](CC(N)=O)C(=O)N[C@@H](Cc1c[nH]c2ccccc12)C(=O)N[C@@H](CC(C)C)C(=O)N[C@@H](CC(C)C)C(=O)N[C@@H](C)C(=O)NCC(=O)NCC(=O)N1CCC[C@H]1C(=O)N[C@@H](CO)C(=O)N[C@@H](CO)C(=O)NCC(=O)N[C@@H](C)C(=O)N1CCC[C@H]1C(=O)N1CCC[C@H]1C(=O)N1CCC[C@H]1C(=O)N[C@@H](CO)C(N)=O)C(C)C [Compound No. 5] (H-Y[Aib]QGTFTSDYSIYLDK([AEEA-AEEA-γGlu-C20 diacid])QAA[Aib]EFVNWLLAGGPSSGAPPPS-NH2; N-terminus assumed) | 85 h |  |
| CC[C@H](C)[C@H](NC(=O)[C@H](CO)NC(=O)[C@H](Cc1ccc(O)cc1)NC(=O)[C@H](CC(=O)O)NC(=O)[C@H](CO)NC(=O)[C@@H](NC(=O)[C@H](Cc1ccccc1)NC(=O)[C@@H](NC(=O)CNC(=O)[C@H](CCC(N)=O)NC(=O)C(C)(C)NC(=O)[C@@H](N)Cc1ccc(O)cc1)[C@@H](C)O)[C@@H](C)O)C(=O)N[C@@H](Cc1ccc(O)cc1)C(=O)N[C@@H](CC(C)C)C(=O)N[C@@H](CC(=O)O)C(=O)N[C@@H](CCCCNC(=O)COCCOCCNC(=O)COCCOCCNC(=O)CC[C@H](NC(=O)C1CCC(CNC(=O)CCCCCCCCCCCCCCCCCCC(=O)O)CC1)C(=O)O)C(=O)N[C@@H](CCC(N)=O)C(=O)N[C@@H](C)C(=O)N[C@@H](C)C(=O)NC(C)(C)C(=O)N[C@@H](CCC(=O)O)C(=O)N[C@@H](Cc1ccccc1)C(=O)N[C@H](C(=O)N[C@@H](CC(N)=O)C(=O)N[C@@H](Cc1c[nH]c2ccccc12)C(=O)N[C@@H](CC(C)C)C(=O)N[C@@H](CC(C)C)C(=O)N[C@@H](C)C(=O)NCC(=O)NCC(=O)N1CCC[C@H]1C(=O)N[C@@H](CO)C(=O)N[C@@H](CO)C(=O)NCC(=O)N[C@@H](C)C(=O)N1CCC[C@H]1C(=O)N1CCC[C@H]1C(=O)N1CCC[C@H]1C(=O)N[C@@H](CO)C(N)=O)C(C)C (stereo partly drawn) [Compound No. 6] (H-Y[Aib]QGTFTSDYSIYLDK([AEEA-AEEA-γGlu-X1])QAA[Aib]EFVNWLLAGGPSSGAPPPS-NH2) |  | 83 h |
| CC[C@H](C)[C@H](NC(=O)[C@H](CO)NC(=O)[C@H](Cc1ccc(O)cc1)NC(=O)[C@H](CC(=O)O)NC(=O)[C@H](CO)NC(=O)[C@@H](NC(=O)[C@H](Cc1ccccc1)NC(=O)[C@@H](NC(=O)CNC(=O)[C@H](CCC(N)=O)NC(=O)C(C)(C)NC(=O)[C@@H](N)Cc1ccc(O)cc1)[C@@H](C)O)[C@@H](C)O)C(=O)N[C@@H](Cc1ccc(O)cc1)C(=O)N[C@@H](CC(C)C)C(=O)N[C@@H](CC(=O)O)C(=O)N[C@@H](CCCCN)C(=O)N[C@@H](CCC(N)=O)C(=O)N[C@@H](C)C(=O)N[C@@H](C)C(=O)NC(C)(C)C(=O)N[C@@H](CCCCNC(=O)COCCOCCNC(=O)COCCOCCNC(=O)CC[C@H](NC(=O)CCCCCCCCCCCCCCCCCCC(=O)O)C(=O)O)C(=O)N[C@@H](Cc1ccccc1)C(=O)N[C@H](C(=O)N[C@@H](CCC(N)=O)C(=O)N[C@@H](Cc1c[nH]c2ccccc12)C(=O)N[C@@H](CC(C)C)C(=O)N[C@@H](CC(C)C)C(=O)N[C@@H](CCC(=O)O)C(=O)NCC(=O)NCC(=O)N1CCC[C@H]1C(=O)N[C@@H](CO)C(=O)N[C@@H](CO)C(=O)NCC(=O)N[C@@H](C)C(=O)N1CCC[C@H]1C(=O)N1CCC[C@H]1C(=O)N1CCC[C@H]1C(=O)N[C@@H](CO)C(N)=O)C(C)C [Compound No. 7] (H-Y[Aib]QGTFTSDYSIYLDKQAA[Aib]K([AEEA-AEEA-γGlu-C20 diacid])FVQWLLEGGPSSGAPPPS-NH2; N-terminus assumed) | 79 h |  |
| CC[C@H](C)[C@H](NC(=O)[C@H](CO)NC(=O)[C@H](Cc1ccc(O)cc1)NC(=O)[C@H](CC(=O)O)NC(=O)[C@H](CO)NC(=O)[C@@H](NC(=O)[C@H](Cc1ccccc1)NC(=O)[C@@H](NC(=O)CNC(=O)[C@H](CCC(N)=O)NC(=O)C(C)(C)NC(=O)[C@@H](N)Cc1ccc(O)cc1)[C@@H](C)O)[C@@H](C)O)C(=O)N[C@@H](Cc1ccc(O)cc1)C(=O)N[C@@H](CC(C)C)C(=O)N[C@@H](CC(=O)O)C(=O)N[C@@H](CCCCN)C(=O)N[C@@H](CCC(N)=O)C(=O)N[C@@H](C)C(=O)N[C@@H](C)C(=O)NC(C)(C)C(=O)N[C@@H](CCCCNC(=O)COCCOCCNC(=O)COCCOCCNC(=O)CC[C@H](NC(=O)C1CCC(CNC(=O)CCCCCCCCCCCCCCCCCCC(=O)O)CC1)C(=O)O)C(=O)N[C@@H](Cc1ccccc1)C(=O)N[C@H](C(=O)N[C@@H](CCC(N)=O)C(=O)N[C@@H](Cc1c[nH]c2ccccc12)C(=O)N[C@@H](CC(C)C)C(=O)N[C@@H](CC(C)C)C(=O)N[C@@H](CCC(=O)O)C(=O)NCC(=O)NCC(=O)N1CCC[C@H]1C(=O)N[C@@H](CO)C(=O)N[C@@H](CO)C(=O)NCC(=O)N[C@@H](C)C(=O)N1CCC[C@H]1C(=O)N1CCC[C@H]1C(=O)N1CCC[C@H]1C(=O)N[C@@H](CO)C(N)=O)C(C)C (stereo partly drawn) [Compound No. 8] (H-Y[Aib]QGTFTSDYSIYLDKQAA[Aib]K([AEEA-AEEA-γGlu-X1])FVQWLLEGGPSSGAPPPS-NH2; N-terminus assumed) |  | 81 h |
| CC(C)C[C@H](NC(=O)[C@H](CC(C)C)NC(=O)[C@H](Cc1c[nH]c2ccccc12)NC(=O)[C@H](CCC(N)=O)NC(=O)[C@@H](NC(=O)[C@H](Cc1ccccc1)NC(=O)[C@H](CCC(=O)O)NC(=O)C(C)(C)NC(=O)[C@H](C)NC(=O)[C@H](C)NC(=O)[C@H](CCC(N)=O)NC(=O)[C@H](CCCCNC(=O)[C@@H](N)CCCCNC(=O)[C@@H](N)CCCCNC(=O)CC[C@H](NC(=O)C1CCC(CNC(=O)CCCCCCCCCCCCCCCCCCC(=O)O)CC1)C(=O)O)NC(=O)[C@H](CCC(=O)O)NC(=O)[C@H](CC(C)C)NC(=O)[C@H](Cc1ccc(O)cc1)NC(=O)[C@H](Cc1ccc(O)cc1)NC(=O)[C@H](CO)NC(=O)[C@H](Cc1ccc(O)cc1)NC(=O)[C@H](CC(=O)O)NC(=O)[C@H](CO)NC(=O)[C@@H](NC(=O)[C@H](Cc1ccccc1)NC(=O)[C@@H](NC(=O)CNC(=O)[C@H](Cc1c[nH]cn1)NC(=O)C(C)(C)NC(=O)[C@@H](N)Cc1c[nH]cn1)[C@@H](C)O)[C@@H](C)O)C(C)C)C(=O)N[C@@H](CCC(=O)O)C(=O)NCC(=O)NCC(=O)N1CCC[C@H]1C(=O)N[C@@H](CO)C(=O)N[C@@H](CO)C(=O)NCC(=O)N[C@@H](C)C(=O)N1CCC[C@H]1C(=O)N1CCC[C@H]1C(=O)N1CCC[C@H]1C(=O)N[C@@H](CO)C(N)=O (stereo partly drawn) [Compound No. 25] (H-H[Aib]HGTFTSDYSYYLEK([εLys-εLys-γGlu-X1])QAA[Aib]EFVQWLLEGGPSSGAPPPS-NH2; N-terminus assumed) |  | 79 h |
| CC(C)C[C@H](NC(=O)[C@H](CC(C)C)NC(=O)[C@H](Cc1c[nH]c2ccccc12)NC(=O)[C@H](CCC(N)=O)NC(=O)[C@@H](NC(=O)[C@H](Cc1ccccc1)NC(=O)[C@H](CCC(=O)O)NC(=O)C(C)(C)NC(=O)[C@H](C)NC(=O)[C@H](C)NC(=O)[C@H](CCC(N)=O)NC(=O)[C@H](CCCCNC(=O)[C@@H](N)CCCCNC(=O)[C@@H](N)CCCCNC(=O)CC[C@H](NC(=O)CCCCCCCCCCCCCCCCC(=O)O)C(=O)O)NC(=O)[C@H](CCC(=O)O)NC(=O)[C@H](CC(C)C)NC(=O)[C@H](Cc1ccc(O)cc1)NC(=O)[C@H](Cc1ccc(O)cc1)NC(=O)[C@H](CO)NC(=O)[C@H](Cc1ccc(O)cc1)NC(=O)[C@H](CC(=O)O)NC(=O)[C@H](CO)NC(=O)[C@@H](NC(=O)[C@H](Cc1ccccc1)NC(=O)[C@@H](NC(=O)CNC(=O)[C@H](Cc1c[nH]cn1)NC(=O)C(C)(C)NC(=O)[C@@H](N)Cc1c[nH]cn1)[C@@H](C)O)[C@@H](C)O)C(C)C)C(=O)N[C@@H](CCC(=O)O)C(=O)NCC(=O)NCC(=O)N1CCC[C@H]1C(=O)N[C@@H](CO)C(=O)N[C@@H](CO)C(=O)NCC(=O)N[C@@H](C)C(=O)N1CCC[C@H]1C(=O)N1CCC[C@H]1C(=O)N1CCC[C@H]1C(=O)N[C@@H](CO)C(N)=O [Compound No. 32] (H-H[Aib]HGTFTSDYSYYLEK([εLys-εLys-γGlu-C18 diacid])QAA[Aib]EFVQWLLEGGPSSGAPPPS-NH2) | 52 h |  |
